Measurements published in US20040010026A1, “(R) 2-(4-amidinophenylaminomethyl)-1-methyl-5-[1-(carboxymethylamino)-1 (pyrrolidinocarbonyl)-ethyl]-benzimidazole, the monohydrochloride thereof, preparation thereof and the use as pharmaceutical composition” (Boehringer Ingelheim Pharma GmbH & Co. KG, priority 2002, published 2004).
Counter-ions that a name gives are not always drawn.

Legend:
[1] = Solid stress stability of the free base and of the corresponding monohydrochloride; format: physicochemical; details: for decomposition under temperature and relative humidity stress / decomposition under temperature stress / decomposition under light stress: solid, open glass dish; for decomposition under temperature and relative humidity stress: 70° C., approx. 90% relative humidity, 3 days; for decomposition under temperature stress: 105° C., 24 hours; for decomposition under light stress: Suntester xenon lamp, 22-24 hours
From the text: Solid stress stability data of the free base and of the corresponding monohydrochloride

[2] = Solubility in physiologically acceptable solvents; format: physicochemical

| Compound | decomposition under temperature and relative humidity stress [1] | decomposition under temperature stress [1] | decomposition under light stress [1] | stability (general statement) [1] | solubility [2] |
| --- | --- | --- | --- | --- | --- |
| Cn1c(CNc2ccc(C(=N)N)cc2)nc2cc([C@@](C)(NCC(=O)O)C(=O)N3CCCC3)ccc21 [Free base, (R)-2-(4-Amidinophenylaminomethyl)-1-methyl-5-[1-(carboxymethylamino)-1-(pyrrolidinocarbonyl)-ethyl]-benzimidazole] | approx. 4% | approx. 1% | approx. 1% |  |  |
| Cn1c(CNc2ccc(C(=N)N)cc2)nc2cc([C@@](C)(NCC(=O)O)C(=O)N3CCCC3)ccc21 [monohydrochloride, (R)-2-(4-Amidinophenylaminomethyl)-1-methyl-5-[1-(carboxymethylamino)-1-(pyrrolidinocarbonyl)-ethyl]-benzimidazole-monohydrochloride] | no decompo- | no decompo- | (<1%) | high degree of stability | dissolves very easily |
